The record followed here is patent US10202371B2, “Oxazolidin-2-one-pyrimidine derivatives and the use thereof as phosphatidylinositol-3-kinase inhibitors” (Novartis AG, priority 2012, dated 2019).

For data set [1], the target named is PI3Kgamma (Homo sapiens (Human), UniProt P48736). The data set is described as follows: Biochemical assay PI3Kgamma (Adapta TR-FRET). The conditions noted are these: read-out: PI3Kg/IC50. From the text: The TR-FRET Adapta™ Universal Kinase Assay Kit was purchased from Invitrogen
Sequence of PI3Kgamma (P48736 whole entry, species assumed): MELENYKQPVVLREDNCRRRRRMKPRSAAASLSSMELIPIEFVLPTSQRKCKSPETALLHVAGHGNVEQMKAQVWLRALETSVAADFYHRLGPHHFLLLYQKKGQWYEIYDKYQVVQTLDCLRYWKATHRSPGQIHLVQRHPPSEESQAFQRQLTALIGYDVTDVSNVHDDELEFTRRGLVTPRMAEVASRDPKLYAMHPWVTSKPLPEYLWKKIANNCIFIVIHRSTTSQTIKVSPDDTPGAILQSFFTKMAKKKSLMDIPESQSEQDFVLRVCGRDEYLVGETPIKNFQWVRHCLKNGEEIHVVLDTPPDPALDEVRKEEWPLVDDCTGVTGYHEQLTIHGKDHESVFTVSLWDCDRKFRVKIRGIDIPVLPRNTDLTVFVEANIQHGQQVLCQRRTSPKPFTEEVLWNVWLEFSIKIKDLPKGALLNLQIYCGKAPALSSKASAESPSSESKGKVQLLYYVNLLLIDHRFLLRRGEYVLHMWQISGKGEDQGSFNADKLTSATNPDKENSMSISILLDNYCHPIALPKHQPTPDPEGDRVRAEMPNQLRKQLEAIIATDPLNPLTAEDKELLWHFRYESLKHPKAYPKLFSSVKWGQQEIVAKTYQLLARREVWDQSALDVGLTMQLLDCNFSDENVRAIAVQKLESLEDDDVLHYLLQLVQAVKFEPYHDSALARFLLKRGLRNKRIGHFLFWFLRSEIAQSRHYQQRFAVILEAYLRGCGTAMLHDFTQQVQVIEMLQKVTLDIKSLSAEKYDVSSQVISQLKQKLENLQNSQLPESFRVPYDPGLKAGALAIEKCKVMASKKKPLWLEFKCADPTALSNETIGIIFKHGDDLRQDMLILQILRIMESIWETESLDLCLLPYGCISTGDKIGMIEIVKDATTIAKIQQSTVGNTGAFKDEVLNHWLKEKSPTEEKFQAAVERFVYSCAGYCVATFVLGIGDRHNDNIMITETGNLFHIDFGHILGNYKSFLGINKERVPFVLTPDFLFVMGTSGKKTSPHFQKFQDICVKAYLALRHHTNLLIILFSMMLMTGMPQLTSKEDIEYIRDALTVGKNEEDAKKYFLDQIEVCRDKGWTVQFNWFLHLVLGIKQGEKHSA
Corporation (Carlsbad/CA, USA) (Cat. No. PV5099). The kit contains the following reagents: Adapta Eu-anti-ADP Antibody (Europium labeled anti-ADP antibody in HEPES buffered saline, Cat. No. PV5097), Alexa Fluor® 647-labeled ADP tracer (Alexa Fluor® 647-labeled ADP tracer in HEPES buffered saline, Cat. No. PV5098), proprietary TR-FRET dilution buffer pH 7.5 (Cat. No. PV3574).
PIK3CD substrate Phosphatidylinositol was obtained from Invitrogen (vesicules consisting of 2 mM PI in 50 mM HEPES pH7.5; Cat. No. PV5371).
Time-Resolved Fluorescence Resonance Energy Transfer (TR-FRET) is a technology based on energy transfer between two adjacent dyes, from an excited electron in one dye (the donor) to an electron of an adjacent dye (the acceptor) through resonance, then released as a photon. This energy transfer is detected by an increase in the fluorescence emission of the acceptor, and a decrease in the fluorescence emission of the donor. TR-FRET assays for protein kinases use a long-lifetime lanthanide Terbium or Europium chelates as the donor species which overcome interference from compound autofluorescence or light scatter from precipitated compounds, by introducing a delay after excitation by a flashlamp excitation source. Results are often expressed as a ratio of the intensities of the acceptor and donor fluorophores. The ratiometric nature of such a value corrects for differences in assay volumes between wells, as well as corrects for quenching effects due to colored compounds. The Adapta™ assay can be divided into two phases: a kinase reaction phase and an ADP detection phase. In the kinase reaction phase, all kinase reaction components are added to the well and the reaction is allowed to incubate for a set period of time specific for each kinase. After the reaction, a detection solution of Eu-labeled anti-ADP antibody, Alexa Fluor® 647-labeled ADP tracer, and EDTA (to stop the kinase reaction) are added to the assay well. ADP formed by the kinase reaction will displace the Alexa Fluor® 647-labeled ADP tracer from the antibody, resulting in a decrease in TR-FRET signal. In the presence of an inhibitor, the amount of ADP formed by the kinase reaction is reduced, and the resulting intact antibody-tracer interaction maintains a high TR-FRET signal. In the Adapta™ assay, the donor (Europium-anti-ADP antibody) is excited at 340 nm and will transfer its energy to the acceptor (Alexa Fluor® 647-labeled ADP tracer). The emission from the Alexa Fluor® 647 can be monitored with a filter centered at 665 nm because it is located between the emission peaks of the donor, which is measured at 615/620 nm.
50 nL of compound dilutions were dispensed onto white 384-well small volume polystyrene plate as described in section 2.2. Then 5 μL of PI3Kg and PI3Kd and lipid substrate (PI or PIP2:PS) followed by 5 μL of ATP (final assay volume 10 μL) are incubated at RT. The standard reaction buffer for the Adapta™ TR-FRET assay contained 10 mM Tris-HCl pH 7.5, 3 mM MgCl2, 50 mM NaCl, 1 mM DTT, 0.05% CHAPS. Reactions were stopped with 5 μL of a mixture of EDTA containing the Eu-labeled anti-ADP antibody and the Alexa Fluor® 647-labeled ADP tracer in TR-FRET dilution buffer (proprietary to IVG). Plates are read 15 to 60 mins later in a Synergy2 reader using an integration time of 0.4 seconds and a delay of 0.05 seconds. […] The standard compound NVP-BGT226 was used as a reference compound and included in all assay plates in the form of 16 dilution points in duplicate.
Data are analyzed using Excel fit software or Graphpad Prism. EC50 values were derived by fitting a sigmoidal dose-response curve to a plot of assay readout over inhibitor concentration. All fits were performed with the program XLfit4 (ID Business Solutions, Guildford, UK). […] All fits were performed with the program XLfit4 (ID Business Solutions, Guildford, UK).

Data set [2] addresses human mTOR (GST-mTOR) (Homo sapiens (Human), UniProt P42345). The data set is described as follows: Binding assay mTor (Lanthascreen kinase binding assay). The conditions noted are these: Tracer-314. From the text:
Catalytically active human PI3Kα, PI3Kβ, PI3Kδ, and mTOR were cloned, expressed and purtified as described (Maira S M, Stauffer F, Brueggen J, Furet P, Schnell C, Fritsch C, Brachmann S, Chène P, de Pover A, Schoemaker K, Fabbro D, Gabriel D, Simonen M, Murphy L, Finan P, Sellers W, Garcia-Echeverria C (2008), Mol Cancer Ther. 7:1851-63 and Maira S M, Pecchi S, Brueggen J, Huh K, Schnell C, Fritsch C, Nagel T, Wiesmann M, Brachmann S, Dorsch M, Chène P, Schoemaker K, De Pover A, Menezes D, Fabbro D, Sellers W, Garcia-Echeverria C, Voliva CF (2011), Mol. Cancer Ther. accepted).
TR-FRET assays for protein kinases uses a long-lifetime lanthanide Terbium or Europium chelates as the donor species which overcome interference by compound autofluorescence or light scatter from precipitated compounds, by introducing a delay after excitation by a flashlamp excitation source. Results are often expressed as a ratio of the intensities of the acceptor and donor fluorophores. The ratiometric nature of such a value corrects for differences in assay volumes between wells, as well as corrects for quenching effects due to colored compounds.
Binding Assays are based on the binding and displacement of an Alexa Fluor® 647-labeled, ATP-competitive kinase inhibitors to the kinase of interest. Invitrogen's “Kinase Tracers” have been developed to address a wide range of kinase targets and are based on ATP-competitive kinase inhibitors, making them suitable for detection of any compounds that bind to the ATP site or to an allosteric site altering the conformation of the ATP site. Inhibitors that bind the ATP site include both Type I kinase inhibitors, which bind solely to the ATP site, and Type II inhibitors (e.g., Gleevec®/Imatinib, Sorafenib, BIRB-796), which bind to both the ATP site and a hydrophobic site exposed in the DFG-out (non-active) conformation. […] The sole exception was a substrate-competitive compound, and thus not a true allosteric inhibitor.
In contrast to most fluorescence-based kinase activity assays, LanthaScreen® Eu^3+ Kinase Binding Assays can be read continuously, which facilitates evaluation of compounds with slow binding kinetics. Also, unlike most activity assays, binding assays can be performed using either active or non-activated kinase preparations, which enables characterization of compounds that bind preferentially to non-activated kinases, such as Gleevec®/imatinib and some allosteric inhibitors.
In the Lanthascreen™ kinase binding assay, the donor (Eu^3+-anti-GST antibody) is excited at 340 nm and will transfer its energy to the acceptor (Alexa Fluor® 647-labeled ATP-competitive kinase inhibitor=Tracer-314). The emission from the Tracer-314 (Alexa Fluor® 647 inhibitor) can be monitored with a filter centered at 665 nm because it is located between the emission peaks of the donor, which is measured at 615/620 nm. The binding of both, the Tracer-314 and Eu^3+-anti-GST antibody, to the kinase results in a high degree of FRET from the Eu^3+-donor fluorophore to the Alexa-Fluor® 647-acceptor fluorophore on the Tracer-314. Binding of an inhibitor to the kinase competes for binding with the tracer, resulting in a loss of FRET.
50 nL of compound dilutions were dispensed onto white 384-well small volume polystyrene plate as described in section 2.2. Then 5 μL of GST-mTOR and Europium-anti-GST antibody followed by 5 μL of tracer-314 (final assay volume 10 μL) are incubated at RT. The standard reaction buffer for the Lanthascreen™ kinase binding assay contained 50 mM HEPES pH 7.5, 5 mM MgCl2, 1 mM EGTA, 0.01% Pluronic F-127. Plates are read 60 mins later in a Synergy2 reader using an integration time of 0.2 microseconds and a delay of 0.1 microseconds.
To calculate the emission ratio, the signal emitted at 665 nm from the acceptor (Alexa Fluor® 647-labeled Tracer-314) is divided by the signal emitted at 620 nm from the donor (Eu^3+ anti-GST antibody) […]
(In general: TR-FRET usually uses a lanthanide donor and a delayed reading to cut background.)

Data set [3] is described as follows: Photostability in light stability chamber. The data set is classed as physicochemical. The conditions noted are these: 1.0 mg/ml in ethanol, 19620 kJ/m^2 over 13 h, 15° C., UPLC 254 nm. As for the experimental part: Samples investigated for light stability were treated in a light stability chamber (Atlas CPS+, Serial Number 0704013). Solutions of 1.0 mg/ml in ethanol were prepared for each molecule and aliquots of 0.5 mL were dispensed into suitable micro tubes. All measurements were done in duplicate and compared to a reference wrapped in aluminium foil during light exposure. Solutions were exposed to 19620 kJ/m^2 over 13 h. Samples were kept at 15° C. during the experiment. […] The peak areas were automatically integrated, and the degradation percentage calculated as the difference between the corresponding peak area percentage of the reference sample and the average peak area percentage of the exposed samples (duplicate).

On to `CC[C@H]1[C@@H](c2ccccc2)OC(=O)N1c1cc(-c2cnc(N)nc2C(F)(F)F)nc(N2CCOCC2)n1` [Example 4], for which the IC50 in data set [1] is 4.5 µM.
Consider `CC[C@H]1[C@H](c2cccc(OC)c2)OC(=O)N1c1cc(-c2cnc(N)nc2C(F)(F)F)nc(N2CCOCC2)n1` [Example 6], for which the IC50 in data set [1] is 7 µM; in data set [2] it was 4.7 µM. For the same compound, the “% degradation in photostability assay (average)” value in data set [3] is 0%.
